In PMC8329121 (Journal of Neuroimmune Pharmacology, 2021):
“And” between values parts separate entries of the source, which are not always exact repeats. Equal values may be shown once. Read-outs that look alike come from different tables or passages of the source.

What was measured:
WT hDAT [1] = target: T1, WT hDAT (Homo sapiens, UniProt Q01959); assay: Kinetic analysis of [3H]DA uptake with or without 2-BP in PC12 cells; format: cell-based; design: expressed in transfected cells; host or cells: PC12 cells, transient, pcDNA3.1+; conditions: 15 µM 2-BP
T1 sequence (Q01959 whole entry): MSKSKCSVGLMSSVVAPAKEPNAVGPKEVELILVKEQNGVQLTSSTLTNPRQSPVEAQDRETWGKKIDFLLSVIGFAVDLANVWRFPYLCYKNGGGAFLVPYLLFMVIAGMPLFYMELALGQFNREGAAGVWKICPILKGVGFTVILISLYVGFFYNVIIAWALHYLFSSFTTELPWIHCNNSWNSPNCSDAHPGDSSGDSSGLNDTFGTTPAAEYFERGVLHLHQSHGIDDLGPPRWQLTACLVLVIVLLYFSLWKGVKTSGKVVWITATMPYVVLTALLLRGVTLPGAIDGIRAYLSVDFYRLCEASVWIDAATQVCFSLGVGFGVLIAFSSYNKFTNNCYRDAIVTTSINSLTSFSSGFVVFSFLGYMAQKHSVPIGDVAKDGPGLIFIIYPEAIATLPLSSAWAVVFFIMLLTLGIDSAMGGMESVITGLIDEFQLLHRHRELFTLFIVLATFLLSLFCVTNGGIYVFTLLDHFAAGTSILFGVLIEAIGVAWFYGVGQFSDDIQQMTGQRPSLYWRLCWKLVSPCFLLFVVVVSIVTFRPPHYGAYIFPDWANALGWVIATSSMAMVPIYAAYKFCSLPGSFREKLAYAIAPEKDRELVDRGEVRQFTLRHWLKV
Method: (§1) This concentration was chosen based on previous studies as well as pilot experiments conducted to determine the optimal concentration (data not shown). […] Intact PC12 cells in 24-well plates transiently expressing WT hDAT or H547A were washed twice with 1× KRH buffer. […] Nonspecific uptake was determined in the presence of 10 µM nomifensine and desipramine. […] specific uptake, nonspecific uptake was subtracted from total uptake. To determine the effects of 2-BP exposure at the 2 h time point, the cells were incubated similarly as above, but allowed to incubate at room temperature for 2 h. After each incubation, cells were washed twice with ice-cold 1× KRH buffer to terminate the […], lysed with 500 µl 1 % SDS, and allowed to shake at room temperature for an hour. Lysates were collected into scintillation vials and radioactivity was measured via liquid scintillation as above. Radioactivity was measured the next day using a liquid scintillation counter (model Tri-Carb 2900TR; PerkinElmer Life and Analytical Sciences, Waltham, MA).

hDAT H547A = target: T2, hDAT H547A (Homo sapiens, UniProt Q01959, H547A); assay: as above; format: cell-based; conditions: 15 µM 2-BP
T2 construct: expressed in transfected cells; host or cells: PC12 cells, transient, pcDNA3.1+
T2 sequence (Q01959 whole entry H547A): as the sequence (Q01959 whole entry) above, with H547A counted along it
Method: as §1

hDAT D381L [2] = target: T3, hDAT D381L (Homo sapiens, UniProt Q01959, D381L); assay: [3H]WIN35,428 binding in intact PC12 cells
T3 construct: expressed in transfected cells; host or cells: PC12 cells, transient, pcDNA3.1+
T3 sequence (Q01959 whole entry D381L): as the sequence (Q01959 whole entry) above, with D381L counted along it
Method: (§2) For the competitive inhibition experiment, assays were performed in duplicate in a final volume of 500 µl. […] Assays were terminated by removal of reaction reagents in well and then washed three times with ice-cold assay buffer. Cells were lysed with 1 % SDS for an hour. Radioactivity was determined as described above.

hDAT D206L/H547A [3] = target: T4, hDAT D206L/H547A (Homo sapiens, UniProt Q01959, D206L/H547A); assay: [3H]WIN35,428 binding in intact PC12 cells
T4 construct: expressed in transfected cells; host or cells: PC12 cells, transient, pcDNA3.1+
T4 sequence (Q01959 whole entry D206L/H547A): as the sequence (Q01959 whole entry) above, with D206L, H547A counted along it
Method: as §2

hDAT D206L [4] = target: T5, hDAT D206L (Homo sapiens, UniProt Q01959, D206L); assay: [3H]WIN35,428 binding in intact PC12 cells
T5 construct: expressed in transfected cells; host or cells: PC12 cells, transient, pcDNA3.1+
T5 sequence (Q01959 whole entry D206L): as the sequence (Q01959 whole entry) above, with D206L counted along it
Method: as §2

hDAT Y88F/D206L/H547A [5] = target: T6, hDAT Y88F/D206L/H547A (Homo sapiens, UniProt Q01959, D206L/H547A/Y88F); assay: [3H]WIN35,428 binding in intact PC12 cells
T6 construct: expressed in transfected cells; host or cells: PC12 cells, transient, pcDNA3.1+
T6 sequence (Q01959 1-620 Y88F/D206L/H547A): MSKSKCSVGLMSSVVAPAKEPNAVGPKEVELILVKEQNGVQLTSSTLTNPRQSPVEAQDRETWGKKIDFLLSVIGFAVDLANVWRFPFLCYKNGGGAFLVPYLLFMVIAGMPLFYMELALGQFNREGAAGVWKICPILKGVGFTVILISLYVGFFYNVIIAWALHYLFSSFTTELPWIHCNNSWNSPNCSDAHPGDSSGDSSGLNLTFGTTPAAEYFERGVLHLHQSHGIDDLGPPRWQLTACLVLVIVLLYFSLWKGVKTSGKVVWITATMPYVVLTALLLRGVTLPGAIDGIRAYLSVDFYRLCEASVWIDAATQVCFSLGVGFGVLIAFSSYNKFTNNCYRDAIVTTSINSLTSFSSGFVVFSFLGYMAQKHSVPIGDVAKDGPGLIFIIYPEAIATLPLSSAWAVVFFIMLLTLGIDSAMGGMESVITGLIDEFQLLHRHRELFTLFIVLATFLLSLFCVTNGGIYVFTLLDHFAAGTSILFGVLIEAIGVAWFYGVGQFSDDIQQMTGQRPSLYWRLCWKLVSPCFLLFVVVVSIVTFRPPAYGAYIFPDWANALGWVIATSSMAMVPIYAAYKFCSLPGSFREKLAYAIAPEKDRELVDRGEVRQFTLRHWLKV
Method: as §2

hDAT D381L [6] = target: T3, hDAT D381L; assay: [3H]DA uptake kinetics and inhibition in intact PC12 cells; format: cell-based
WT hDAT [7] = target: T1, WT hDAT; format: binding; design: expressed in transfected cells; host or cells: PC12 cells, transient, pcDNA3.1+; conditions: for increase in specific [3H]WIN35,428 binding: Fig. 6d; for Bmax of [3H]WIN35,428 binding: PC12 cells
Method: as §2

hDAT D206L/H547A [8] = target: T4, hDAT D206L/H547A; assay: [3H]DA uptake kinetics and inhibition in intact PC12 cells; format: cell-based
hDAT D206L [9] = target: T5, hDAT D206L; assay: as above; format: cell-based
hDAT Y88F/D206L/H547A [10] = target: T6, hDAT Y88F/D206L/H547A; assay: as above; format: cell-based
WT hDAT [11] = target: T1, WT hDAT; conditions: for Vmax of [3H]DA uptake: PC12 cells
[12] = ZnCl2 1, 10, 100 µM, concentration-dependent

## CCCCCCCCCCCCCCC(Br)C(=O)O (stereo not drawn) [2-BP, 2-bromopalmitate]
WT hDAT [1]; 0 h
  Vmax of [3H]DA uptake in the presence of 2-BP: 5.36 ± 0.74 pmol/min/10^5 cells
WT hDAT [1]; 2 h
  Vmax of [3H]DA uptake in the presence of 2-BP: 5.55 ± 0.92 pmol/min/10^5 cells
hDAT H547A; 0 h
  Vmax of [3H]DA uptake in the presence of 2-BP: 6.41 ± 1.45 pmol/min/10^5 cells
hDAT H547A; 2 h
  Vmax of [3H]DA uptake in the presence of 2-BP: 5.56 ± 1.93 pmol/min/10^5 cells and 5.66 ± 1.93 pmol/min/10^5 cells

## [Cl-].[Cl-].[Zn+2] [Zn^2+, ZnCl2]
hDAT D381L [2]; [12]
  zinc effect on specific [3H]WIN35,428 binding: increase
hDAT D206L/H547A [3]; 10 and 100 µM Zn2+, Fig. 6d
  zinc-induced increase in [3H]WIN35,428 binding versus WT hDAT: attenuated
hDAT D206L [4]; [12]
  zinc effect on specific [3H]WIN35,428 binding: increase
hDAT Y88F/D206L/H547A [5]; 10 and 100 µM Zn2+, Fig. 6d
  zinc-induced increase in [3H]WIN35,428 binding versus WT hDAT: attenuated
hDAT D381L [6]; [12]
  zinc effect on [3H]DA uptake: decrease
WT hDAT [7]; 10 µM Zn2+
  increase in specific [3H]WIN35,428 binding: 39%
WT hDAT [7]; 100 µM Zn2+
  increase in specific [3H]WIN35,428 binding: 52%
WT hDAT [7]; [12]
  zinc effect on specific [3H]WIN35,428 binding: increase
hDAT D206L/H547A [8]; [12]
  zinc effect on [3H]DA uptake: decrease
hDAT D206L [9]; [12]
  zinc effect on [3H]DA uptake: decrease
hDAT Y88F/D206L/H547A [10]; [12]
  zinc effect on [3H]DA uptake: decrease

## NCCc1ccc(O)c(O)c1 [[^3H]DA, 3,4-ethyl-2[N-^3H]dihydroxyphenylethylamine]
hDAT D381L [6]; PC12 cells
  Km: 1040 ± 340 nM
WT hDAT [11]; read-out: Km of [3H]DA uptake, PC12 cells, Table 2 series
  Km: 450 ± 210 nM
hDAT D206L [9]; PC12 cells
  Km: 1660 ± 780 nM

## [3H]C(CN)c1ccc(O)c(O)c1 (stereo not drawn) [[^3H]DA, 3,4-ethyl-2[N-^3H]dihydroxyphenylethylamine]
hDAT D381L [6]; PC12 cells
  Vmax of [3H]DA uptake: 4.54 ± 0.95 pmol/min/10^5 cells
hDAT D206L/H547A [8]; PC12 cells
  Vmax of [3H]DA uptake: 40.82 ± 3.60 pmol/min/10^5 cells
WT hDAT [11]; Table 1 series (single mutants)
  Vmax of [3H]DA uptake: 12.43 ± 2.50 pmol/min/10^5 cells
WT hDAT [11]; Table 2 series (double and triple mutants)
  Vmax of [3H]DA uptake: 26.62 ± 3.87 pmol/min/10^5 cells
hDAT D206L [9]; PC12 cells
  Vmax of [3H]DA uptake: 13.09 ± 3.55 pmol/min/10^5 cells
hDAT Y88F/D206L/H547A [10]; PC12 cells
  Vmax of [3H]DA uptake: 10.78 ± 0.98 pmol/min/10^5 cells

## COC(=O)[C@H]1[C@@H](c2ccc(F)cc2)C[C@@H]2CC[C@H]1N2C [[^3H]WIN35,428]
hDAT D381L [2]; PC12 cells
  Bmax of [3H]WIN35,428 binding: 2.00 ± 0.63 pmol/10^5 cells
hDAT D206L/H547A [3]; PC12 cells
  Bmax of [3H]WIN35,428 binding: 4.95 ± 1.28 poml/10^5 cells
hDAT D206L [4]; PC12 cells
  Bmax of [3H]WIN35,428 binding: 2.87 ± 0.96 pmol/10^5 cells
hDAT Y88F/D206L/H547A [5]; PC12 cells
  Bmax of [3H]WIN35,428 binding: 3.50 ± 0.47 poml/10^5 cells
WT hDAT [7]; Table 3 series
  Bmax of [3H]WIN35,428 binding: 3.32 ± 0.58 pmol/10^5 cells
WT hDAT [7]; Table 4 series
  Bmax of [3H]WIN35,428 binding: 2.44 ± 0.40 poml/10^5 cells
